Data: ChEMBL document CHEMBL4477206, “Benzylpiperidine-Linked Diarylthiazoles as Potential Anti-Alzheimer's Agents: Synthesis and Biological Evaluation” (J Med Chem, 2016)

How the values were obtained:
[1] = target: Cholinesterase (Equus caballus, UniProt P81908); test: Inhibition of equine serum BuChE using BTCI as substrate preincubated for 30 mins followed by substrate addition measured after 30 mins by Ellman assay
[2] = target: T1, Acetylcholinesterase (Homo sapiens, UniProt P22303); test: Inhibition of human erythrocyte AChE using ATCI as substrate preincubated for 30 mins followed by substrate addition measured after 30 mins by Ellman assay
[3] = Permeability of the compound at 100 ug/ml incubated for 120 mins by PAMPA; format: ADME; conditions: read-out: Peff
[4] = in vitro; conditions: human
Description: Cytotoxicity against human SH-SY5Y cells assessed as cell viability at 80 uM after 24 hrs by MTT assay

[5] = in vitro; conditions: human; remark: listed apart in the source
Description: Cytotoxicity against human SH-SY5Y cells assessed as cell viability at 40 uM after 24 hrs by MTT assay

[6] = target: T1, Acetylcholinesterase; conditions: at 10 µM
Description: Inhibition of human erythrocyte AChE-induced Abeta (1 to 42) aggregation at 10 uM incubated for 24 hrs by thioflavin-T fluorescence assay

T1 sequence (P22303 whole entry): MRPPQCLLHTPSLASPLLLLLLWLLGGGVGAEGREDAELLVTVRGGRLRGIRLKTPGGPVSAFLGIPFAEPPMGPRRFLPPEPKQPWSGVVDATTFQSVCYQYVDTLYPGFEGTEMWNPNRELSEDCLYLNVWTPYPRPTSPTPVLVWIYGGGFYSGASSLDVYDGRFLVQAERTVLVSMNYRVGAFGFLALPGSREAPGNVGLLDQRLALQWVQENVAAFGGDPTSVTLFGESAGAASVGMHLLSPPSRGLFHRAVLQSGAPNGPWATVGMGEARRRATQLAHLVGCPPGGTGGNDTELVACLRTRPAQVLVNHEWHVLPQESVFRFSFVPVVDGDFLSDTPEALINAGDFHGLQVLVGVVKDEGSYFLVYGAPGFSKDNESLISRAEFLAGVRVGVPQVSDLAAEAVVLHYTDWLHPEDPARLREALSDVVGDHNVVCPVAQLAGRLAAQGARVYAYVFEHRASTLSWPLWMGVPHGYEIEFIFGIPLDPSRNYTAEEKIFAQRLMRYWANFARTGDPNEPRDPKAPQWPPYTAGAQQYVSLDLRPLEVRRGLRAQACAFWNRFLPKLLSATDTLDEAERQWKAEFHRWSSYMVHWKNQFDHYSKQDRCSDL
Chain of Cholinesterase (P81908 whole entry): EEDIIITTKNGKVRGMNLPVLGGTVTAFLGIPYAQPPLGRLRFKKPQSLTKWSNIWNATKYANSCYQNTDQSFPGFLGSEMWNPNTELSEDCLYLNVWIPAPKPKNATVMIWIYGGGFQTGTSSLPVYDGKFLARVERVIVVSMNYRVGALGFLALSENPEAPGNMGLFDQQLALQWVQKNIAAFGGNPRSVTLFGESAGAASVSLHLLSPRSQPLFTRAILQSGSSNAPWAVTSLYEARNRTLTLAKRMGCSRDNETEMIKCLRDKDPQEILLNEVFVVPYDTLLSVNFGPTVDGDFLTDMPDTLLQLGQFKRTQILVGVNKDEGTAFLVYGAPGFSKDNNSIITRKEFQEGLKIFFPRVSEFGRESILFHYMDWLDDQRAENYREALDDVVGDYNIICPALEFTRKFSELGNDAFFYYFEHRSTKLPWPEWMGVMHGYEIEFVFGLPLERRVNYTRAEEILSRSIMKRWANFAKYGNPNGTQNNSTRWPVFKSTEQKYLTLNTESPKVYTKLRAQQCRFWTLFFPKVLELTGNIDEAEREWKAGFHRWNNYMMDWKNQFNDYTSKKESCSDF

Compound | IC50 [1] | IC50 [2] | Papp at 2 h, 100 ug/ml [3] | viability at 24 h, 80 µM ([4]; SH-SY5Y cells) | viability at 24 h, 40 µM ([5]; SH-SY5Y cells) | inhibition [6] | viability at 24 h, 80 µM ([4]; sh-sy5y) | viability at 24 h, 40 µM ([5]; sh-sy5y)
Fc1ccc(CN2CCC(CNc3nc(-c4ccc(Cl)cc4)c(-c4ccc(Cl)cc4)s3)CC2)c(C(F)(F)F)c1 | 3.3 µM | 1.24 µM | – | – | – | – | – | –
COc1ccc(-c2nc(NCC3CCN(Cc4ccccc4C(F)(F)F)CC3)sc2-c2ccc(OC)cc2)cc1 | 8.01 µM | 0.69 µM | 8.4 ×10⁻⁶ cm/s | 90.1% | 94.2% | 20.6% | – | –
COc1ccc(CN2CCC(Nc3nc(-c4ccc(OC)cc4)c(-c4ccc(OC)cc4)s3)CC2)cc1 | 2.53 µM | 0.77 µM | 10.3 ×10⁻⁶ cm/s | 89.5% | 92.1% | 11.4% | – | –
Clc1ccc(-c2nc(NC3CCN(Cc4ccccc4)CC3)sc2-c2ccc(Cl)cc2)cc1 | 3.3 µM | 1.38 µM | – | – | – | – | – | –
Cc1ccc(-c2nc(NCC3CCN(Cc4ccc(F)cc4)CC3)sc2-c2ccc(C)cc2)cc1 | 1.95 µM | 0.37 µM | 10.1 ×10⁻⁶ cm/s | 89.7% | 91.8% | 25.8% | – | –
Cc1ccc(CN2CCC(Nc3nc(-c4ccc(Cl)cc4)c(-c4ccc(Cl)cc4)s3)CC2)cc1 | > 10 µM | 3.19 µM | – | – | – | – | – | –
COc1cc2c(cc1OC)C(=O)C(CC1CCN(Cc3ccccc3)CC1)C2 (configuration not stated) [DONEPEZIL] | – | – | – | – | – | – | 92.3% | 96.9%
COc1ccc(-c2nc(NC(=O)C3CCN(Cc4ccccc4C#N)CC3)sc2-c2ccc(OC)cc2)cc1 | 3.58 µM | 2.8 µM | – | – | – | – | – | –
COc1ccc(-c2nc(NCC3CCN(Cc4c(F)cccc4Cl)CC3)sc2-c2ccc(OC)cc2)cc1 | 2.15 µM | 0.36 µM | 12.2 ×10⁻⁶ cm/s | 87.1% | 94.2% | 27.2% | – | –
Cc1ccc(-c2nc(NC(=O)C3CCN(Cc4c(F)cccc4Cl)CC3)sc2-c2ccc(C)cc2)cc1 | 2.77 µM | 2.88 µM | – | – | – | – | – | –
Cc1ccc(CN2CCC(Nc3nc(-c4ccc(C)cc4)c(-c4ccc(C)cc4)s3)CC2)cc1 | 6.03 µM | 1.09 µM | – | – | – | – | – | –
Fc1ccc(CN2CCC(CNc3nc(-c4ccc(Cl)cc4)c(-c4ccc(Cl)cc4)s3)CC2)c(Cl)c1 | 0.74 µM | 0.52 µM | 13.2 ×10⁻⁶ cm/s | 88.9% | 92.7% | 15% | – | –
N#Cc1ccc(CN2CCC(Nc3nc(-c4ccc(Cl)cc4)c(-c4ccc(Cl)cc4)s3)CC2)cc1 | 1.72 µM | 1.02 µM | – | – | – | – | – | –
Cc1ccccc1CN1CCC(C(=O)Nc2nc(-c3ccc(Cl)cc3)c(-c3ccc(Cl)cc3)s2)CC1 | 1.04 µM | 1.1 µM | – | – | – | – | – | –
O=C(Nc1nc(-c2ccc(Cl)cc2)c(-c2ccc(Cl)cc2)s1)C1CCN(Cc2ccc(OC(F)(F)F)cc2)CC1 | 2.18 µM | 1.38 µM | – | – | – | – | – | –
COc1ccc(-c2nc(NC3CCN(Cc4ccc(C)cc4)CC3)sc2-c2ccc(OC)cc2)cc1 | 2.25 µM | 0.83 µM | 9.6 ×10⁻⁶ cm/s | 89.5% | 95.4% | 19.2% | – | –
COc1ccc(-c2nc(NC3CCN(Cc4ccc(C(F)(F)F)cc4)CC3)sc2-c2ccc(OC)cc2)cc1 | 1.68 µM | 0.75 µM | 8.6 ×10⁻⁶ cm/s | 90.4% | 94.5% | 18.9% | – | –
O=C(Nc1nc(-c2ccc(Cl)cc2)c(-c2ccc(Cl)cc2)s1)C1CCN(Cc2cccc(F)c2)CC1 | 0.72 µM | 0.65 µM | 15.9 ×10⁻⁶ cm/s | 91.1% | 93.6% | 18.8% | – | –
Cc1ccc(-c2nc(NCC3CCN(Cc4ccccc4C(F)(F)F)CC3)sc2-c2ccc(C)cc2)cc1 | 2.2 µM | 0.4 µM | 12.8 ×10⁻⁶ cm/s | 91.7% | 93.5% | 26.4% | – | –
Cc1ccc(-c2nc(NC(=O)C3CCN(Cc4ccccc4C(F)(F)F)CC3)sc2-c2ccc(C)cc2)cc1 | 1.88 µM | 7.57 µM | – | – | – | – | – | –
Cc1ccc(-c2nc(NC(=O)C3CCN(Cc4ccccc4C)CC3)sc2-c2ccc(C)cc2)cc1 | 1.5 µM | > 10 µM | – | – | – | – | – | –
COc1ccc(-c2nc(NC(=O)C3CCN(Cc4ccc(F)cc4)CC3)sc2-c2ccc(OC)cc2)cc1 | 1.73 µM | 1.16 µM | – | – | – | – | – | –
O=C(Nc1nc(-c2ccc(Cl)cc2)c(-c2ccc(Cl)cc2)s1)C1CCN(Cc2ccc(F)cc2Cl)CC1 | > 10 µM | 3.7 µM | – | – | – | – | – | –

Compound | IC50 [1] | IC50 [2] | Papp at 2 h, 100 ug/ml [3] | viability at 24 h, 80 µM ([4]; SH-SY5Y cells) | viability at 24 h, 40 µM ([5]; SH-SY5Y cells) | inhibition [6] | viability at 24 h, 80 µM ([4]; sh-sy5y) | viability at 24 h, 40 µM ([5]; sh-sy5y)
Cc1ccc(-c2nc(NCC3CCN(Cc4ccccc4C)CC3)sc2-c2ccc(C)cc2)cc1 | 2.51 µM | 0.5 µM | 10.6 ×10⁻⁶ cm/s | 90.1% | 91.4% | 16.2% | – | –
COc1ccc(-c2nc(NC(=O)C3CCN(Cc4ccc(F)cc4C(F)(F)F)CC3)sc2-c2ccc(OC)cc2)cc1 | 1.78 µM | 1.23 µM | – | – | – | – | – | –
Cc1ccc(-c2nc(NC3CCN(Cc4ccccc4)CC3)sc2-c2ccc(C)cc2)cc1 | 3.59 µM | 1.28 µM | – | – | – | – | – | –
Cc1ccc(-c2nc(NC(=O)C3CCN(Cc4ccc([N+](=O)[O-])cc4)CC3)sc2-c2ccc(C)cc2)cc1 | > 10 µM | 2.32 µM | – | – | – | – | – | –
COc1ccc(-c2nc(NC(=O)C3CCN(Cc4ccccc4C(F)(F)F)CC3)sc2-c2ccc(OC)cc2)cc1 | 1.92 µM | 0.68 µM | 12.3 ×10⁻⁶ cm/s | 93.1% | 92.4% | 14.5% | – | –
COc1ccc(-c2nc(NC(=O)C3CCN(Cc4c(F)cccc4Cl)CC3)sc2-c2ccc(OC)cc2)cc1 | 1.57 µM | 0.41 µM | 8.2 ×10⁻⁶ cm/s | 91.6% | 92.9% | 16.6% | – | –
COc1ccc(-c2nc(NC(=O)C3CCN(Cc4ccccc4C)CC3)sc2-c2ccc(OC)cc2)cc1 | 1.85 µM | 1.34 µM | – | – | – | – | – | –
COc1ccc(-c2nc(NC(=O)C3CCN(Cc4cc(F)cc(F)c4)CC3)sc2-c2ccc(OC)cc2)cc1 | > 10 µM | 2.45 µM | – | – | – | – | – | –
Cc1ccccc1CN1CCC(CNc2nc(-c3ccc(Cl)cc3)c(-c3ccc(Cl)cc3)s2)CC1 | 1.43 µM | 0.87 µM | 8.8 ×10⁻⁶ cm/s | 90.9% | 95.4% | 23.3% | – | –
Cc1ccc(-c2nc(NC(=O)C3CCN(Cc4ccc(C(F)(F)F)cc4)CC3)sc2-c2ccc(C)cc2)cc1 | 2.78 µM | > 10 µM | – | – | – | – | – | –
COc1ccc(-c2nc(NCC3CCN(Cc4ccccc4C)CC3)sc2-c2ccc(OC)cc2)cc1 | 2.21 µM | 0.59 µM | 12.3 ×10⁻⁶ cm/s | 87.2% | 91.6% | 25.6% | – | –
O=C(Nc1nc(-c2ccc(Cl)cc2)c(-c2ccc(Cl)cc2)s1)C1CCN(Cc2ccccc2C(F)(F)F)CC1 | 3.36 µM | 2.77 µM | – | – | – | – | – | –
Fc1cc(F)cc(CN2CCC(CNc3nc(-c4ccc(Cl)cc4)c(-c4ccc(Cl)cc4)s3)CC2)c1 | 0.82 µM | 0.63 µM | 12.5 ×10⁻⁶ cm/s | 91.7% | 92.4% | 19.4% | – | –
Cc1ccc(-c2nc(NC(=O)C3CCN(Cc4cc(F)cc(F)c4)CC3)sc2-c2ccc(C)cc2)cc1 | 3.51 µM | 2.5 µM | – | – | – | – | – | –
COc1ccc(-c2nc(NC(=O)C3CCN(Cc4cccc(F)c4)CC3)sc2-c2ccc(OC)cc2)cc1 | 1.54 µM | 0.57 µM | 12.5 ×10⁻⁶ cm/s | 90.3% | 94% | 21.2% | – | –
Cc1ccc(-c2nc(NC(=O)C3CCN(Cc4cccc(F)c4)CC3)sc2-c2ccc(C)cc2)cc1 | 1.97 µM | > 10 µM | – | – | – | – | – | –
Cc1ccc(-c2nc(NC(=O)C3CCN(Cc4ccc(C#N)cc4)CC3)sc2-c2ccc(C)cc2)cc1 | 5.32 µM | 1.28 µM | – | – | – | – | – | –
O=C(Nc1nc(-c2ccc(Cl)cc2)c(-c2ccc(Cl)cc2)s1)C1CCN(Cc2cc(F)cc(F)c2)CC1 | 3.03 µM | 0.64 µM | 8.8 ×10⁻⁶ cm/s | 92.8% | 95.6% | 12% | – | –
Cc1ccc(-c2nc(NC(=O)C3CCN(Cc4ccc(F)cc4Cl)CC3)sc2-c2ccc(C)cc2)cc1 | 1.6 µM | > 10 µM | – | – | – | – | – | –
N#Cc1ccccc1CN1CCC(C(=O)Nc2nc(-c3ccc(Cl)cc3)c(-c3ccc(Cl)cc3)s2)CC1 | 1.59 µM | 1.77 µM | – | – | – | – | – | –
COc1ccc(CN2CCC(Nc3nc(-c4ccc(Cl)cc4)c(-c4ccc(Cl)cc4)s3)CC2)cc1 | 1.57 µM | 1.12 µM | – | – | – | – | – | –
Fc1ccc(CN2CCC(Nc3nc(-c4ccc(Cl)cc4)c(-c4ccc(Cl)cc4)s3)CC2)c(Cl)c1 | 1.97 µM | 0.37 µM | 8.4 ×10⁻⁶ cm/s | 92.5% | 94.2% | 27.5% | – | –
